Test results: PMC6332334, “3-H-[1,2]Dithiole as a New Anti-Trypanosoma cruzi Chemotype: Biological and Mechanism of Action Studies” (Molecules, 2015)
Marks after values point to notes of the source that are not given here.

Experiments:
[1] = system: membrane sterol biosynthesis in epimastigotes of Y strain of T. cruzi; assay: Inhibition of membrane sterol biosynthesis (qualitative TLC); assay type: cell-based, Trypanosoma cruzi; conditions: compounds at their IC50, 72 h, 28 °C, compared to control
Description: To do so, we analyzed the accumulation or depletion of some intermediates or final products of this biochemical pathway. Qualitative analyses were performed by thin layer chromatography (TLC).
The parasites, epimastigotes of Y strain of T. cruzi (DTU Tc II), were grown in 6 mL of BHT milieu in culture bottles. […] A negative control was performed with parasites in the absence of compounds. […] The extraction of membrane sterols was performed on completion of the incubation. For this purpose, the content of the culture bottle was centrifuged at 3000 rpm for 10 min, the supernatant was discarded and the pellet was suspended in sodium phosphate buffer solution (6 mL, 0.05 M, pH 7.4). Then it was centrifuged again at 3000 rpm for 10 min and the supernatant was discarded. The resulting pellet was resuspended in a chloroform/methanol (2:1) mixture (5 mL) and the suspension was kept at 4 °C for 12 h. Then, a saturated NaCl solution (5 mL) was added and the mixture extracted once with chloroform (3 mL) and once with hexane (3 mL) with care to avoid taking any aqueous phase. The extracted volume was applied to a silica gel TLC plate. Chromatography was performed eluting with hexane, two runs to identify squalene, and once with hexane/EtOAc (8:2) for ergosterol. […] Also, controls and commercial samples of ergosterol, lanosterol, cholesterol and squalene were run on the TLC plate. […]

[2] = system: epimastigotes of T. cruzi (Tulahuen 2 strain); assay: Anti-T. cruzi test in vitro (epimastigote growth inhibition); assay type: cell-based, Trypanosoma cruzi
Description: To evaluate the anti-trypanosomal activity of the synthesized 3H-[1,2]dithioles we used T. cruzi, Tulahuen 2 strain (discrete typing unit, DTU, TcVI [18]) in the epimastigote form. […] To establish the selectivity of the compounds against the parasite, unspecific cytotoxicity against mammalian cells (J774.1 murine macrophages) was studied for the most relevant derivatives. The selectivity indexes (SI) were also determined (Table 1).
We used epimastigotes of the Tulahuen 2 strain (DTU, Tc VI) growing in an axenic milieu (BHI-Tryptose). Cells from a 5–7-day-old culture were inoculated in fresh culture milieu to give an initial concentration of 1 × 10^6 cells/mL. The absorbance at 600 nm of the cells in culture was measured every day. At day 5, the milieu was inoculated with different quantities of the compounds from a stock solution in DMSO (DMSO concentration in the culture milieu never exceeded 0.4%). The control was made in the presence of 0.4% DMSO and in the absence of compounds. […] At day 5, the absorbance of the culture was measured and related to the control. The IC50 value was taken as the concentration of drug needed to reduce the absorbance ratio to 50%.

[3] = system: T. cruzi cells (Y strain, DTU Tc II); assay: 1H-NMR study of the excreted metabolites; assay type: cell-based, Trypanosoma cruzi
Description: To gain insight into the changes promoted by the active 3-propylidene[1,2]dithioles 2 and 14 in some biochemical pathways, the metabolites excreted by the parasite using ^1H-NMR spectroscopy were analyzed. Changes in the excreted metabolites by T. cruzi Y strain (DTU Tc II, [24]), when the parasite cells were exposed to a bioactive compound, could be indicative of the modification of the biochemical pathway(s) by the agents. Spectra of the cell-free milieu of treated parasites were compared with those of the untreated T. cruzi-free milieu as the control. We focused mainly on the changes of excreted salts of the carboxylic acids, lactate (Lac), acetate (Ace), pyruvate (Pyr), and succinate (Succ) and the amino acids, alanine (Ala) and glycine (Gly), among the most relevant modified metabolites.
For the ^1H-NMR spectroscopic studies, T. cruzi cells (Y strain, DTU Tc II) treated for 2 days, with each studied compound at concentrations corresponding to 2 × IC50 values (5 mL) were centrifuged at 1500× g for 10 min at 4 °C. The pellet was discarded, and the parasite-free supernatant was stored at −20 °C until use. Before measuring, DMF (0.1 mL, 10 mM) as the internal standard and D2O (0.1 mL) were added to the supernatant (0.3 mL). ^1H-NMR experiments were recorded at 20 °C on a Bruker Advance DPX-400 spectrometer (Bruker), operating at 400.132 MHz, with a 5 mm broadband inverse geometry probe. The acquisition parameters included: 90° pulse (zgpr, advance-version v 1.7.10.2, 1D sequence with f1 presaturation), 128 scans, and spectral width of 14.983 ppm. The acquisition time was 1.3664 s. Signal intensities were calculated by performing appropriate baseline corrections and then integrating the area under each of the resonances using MestRe-C NMR software. Spectra were analyzed using the Topspin 1.3 software package. The spectra were registered with water suppression in 5 mm NMR (Aldrich, St. Louis, MO, USA) sample tubes. The chemical displacements used to identify the respective metabolites were previously confirmed by adding each analyzed metabolite to the studied supernatant, as well as by the study of a control solution with 4 μg/mL of each metabolite in buffer (phosphate, pH = 7.4). Each run was done at least in triplicate and the Student t test was used to analyze the significance of the changes. […]

[4] = molecular target: T1, cruzipain (Trypanosoma cruzi, UniProt P25779); assay: Inhibition of T. cruzi cruzipain (Z-Phe-Arg-AMC fluorogenic substrate); assay type: biochemical; conditions: isolated enzyme
T1 construct: endogenous in cells; host or cells: T. cruzi epimastigotes, Tulahuen 2 strain
T1 sequence (P25779 123-467): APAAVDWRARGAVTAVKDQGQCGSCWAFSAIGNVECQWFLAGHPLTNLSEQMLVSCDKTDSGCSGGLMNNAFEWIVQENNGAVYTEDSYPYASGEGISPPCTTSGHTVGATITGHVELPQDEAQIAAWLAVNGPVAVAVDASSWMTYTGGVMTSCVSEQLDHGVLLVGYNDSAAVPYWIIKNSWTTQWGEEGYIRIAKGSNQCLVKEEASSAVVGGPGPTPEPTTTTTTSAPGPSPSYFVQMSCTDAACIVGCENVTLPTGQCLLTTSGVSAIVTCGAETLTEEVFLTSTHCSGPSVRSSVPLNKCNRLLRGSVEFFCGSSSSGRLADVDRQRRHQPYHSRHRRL

[5] = IC50 × 2, 2 days, DMF internal standard

SMILES: CC(=O)COc1ccc(C2=C/C(=C(\SCC(C)=O)C(C)=O)SS2)cc1 [Derivative 2]
- Changes in membrane sterols and intermediates (squalene, ergosterol) [1]: accumulate squalene and deplete ergosterol
- IC50 ([2]; Trypanosoma cruzi, epimastigotes, Tulahuen 2 strain, triplicate, read-out: IC50 against T. cruzi): 7.7 ± 1.4 µM
- SI (selectivity index) ([2]; macrophages (J774.1) vs T. cruzi epimastigotes): 3.1
- Concentration of excreted Ace [3, 5]: 23.28 ± 0.86
- Concentration of excreted Ala [3, 5]: 17.76 ± 0.61
- Concentration of excreted Gly [3, 5]: 2.11 ± 0.11 ^c
- Concentration of excreted Lac [3, 5]: 8.73 ± 0.37
- Concentration of excreted Pyr [3, 5]: 8.00 ± 0.35
- Concentration of excreted Succ [3, 5]: 5.83 ± 0.24
- Change of excreted metabolites compared to the control ([3]; IC50 × 2, p < 0.05 Student's t-test): significantly decreased the levels of excreted Gly and Pyr
- IC50 [4]: 15.5 ± 2.7 µM
